Results reported in patent US12194018B2, “Cannabinoid compositions” (SRE Wellness, Inc., priority 2016, dated 2025).

Experiments:
[1] = Emulsifying agents tested for emulsification of coconut oil and water (Example 2); format: physicochemical; conditions: coconut oils solid and liquid (MCT)
From the text: Several experiments were run using several different emulsifiers and combinations of different coconut oils: solid and liquid (MCT). (Note: liquid MCT is coconut oil that has medium chain triglyceride).

[2] = in vivo; cited from earlier work
[3] = edible Cannabis products; depending on liver function; cited from earlier work

| Compound | Effectiveness as emulsifying agent (emulsification of the oil and water) [1] | Risk of lethal overdose [2] | Share of the THC able to be metabolized [3] |
| --- | --- | --- | --- |
| cyclodextrin | good results |  |  |
| C=C(C)[C@@H]1CCC(C)=C[C@H]1c1c(O)cc(CCCCC)cc1O [CBD, cannabidiol] |  | no risk of lethal overdose |  |
| CCCCCc1cc(O)c2c(c1)OC(C)(C)[C@@H]1CCC(C)=C[C@@H]21 [THC, Δ^9-tetrahydrocannabinol] |  | no risk of lethal overdose | 2-6% |
